This experiment deals with hCoV-19/Norway/Trondheim-E9/2020. In words: Drug test: viability of SARS-CoV-2-infected Vero-E6 cells (CellTiter-Glo). Format: cell-based. Set-up: AUC: unit not given beside the values. Conditions: 72 h. On the technique in general: ATP-based viability assays read luminescence as a measure of living cells.
Setting [1] is: area under the dose-response curve of viability of virus-infected Vero-E6 cells, moi 0.1, 7 concentrations, decimal comma.

Where a name gives a salt, the structure may show the parent alone.

With `CC[C@@]1(O)C(=O)OCc2c1cc1n(c2=O)Cc2cc3c(CN(C)C)c(O)ccc3nc2-1` [Topotecan], the AUC under setting [1] was 124,6.
With `CN[C@H](CC(C)C)C(=O)N[C@H]1C(=O)N[C@@H](CC(N)=O)C(=O)N[C@H]2C(=O)N[C@H]3C(=O)N[C@H](C(=O)N[C@H](C(=O)O)c4cc(O)cc(O)c4-c4cc3ccc4O)[C@H](O[C@H]3C[C@](C)(N)[C@@H](O)[C@H](C)O3)c3ccc(c(Cl)c3)Oc3cc2cc(c3O[C@@H]2O[C@H](CO)[C@@H](O)[C@H](O)[C@H]2O[C@H]2C[C@](C)(NCc3ccc(-c4ccc(Cl)cc4)cc3)[C@@H](O)[C@H](C)O2)Oc2ccc(cc2Cl)[C@H]1O` [Oritavancin], the AUC is listed as 163,24.
Regarding `CN(C)CCOc1ccc(/C(=C(/CCCl)c2ccccc2)c2ccccc2)cc1` [Toremifene], the AUC under setting [1] is 27,02.
With `C[C@@H]1O[C@@H](O[C@H]2C[C@@H](O)[C@]3(CO)[C@H]4[C@H](O)C[C@]5(C)[C@@H](C6=CC(=O)OC6)CC[C@]5(O)[C@@H]4CC[C@]3(O)C2)[C@H](O)[C@H](O)[C@H]1O` [Ouabain octahydrate], the AUC is 41,93.
Turning to `CN(Cc1cc(Br)cc(Br)c1N)C1CCCCC1` [Bromhexine HCl], the AUC under setting [1] is recorded as 124,95.
On the same count and under the same terms, with `Nc1ncnc2c([C@@H]3N[C@H](CO)[C@@H](O)[C@H]3O)c[nH]c12` [BCX4430 (galidesivir), galidesivir] the figure was 94,08.
Same read-out and setting: with `CCCCNc1cc(C(=O)O)cc(S(N)(=O)=O)c1Oc1ccccc1` [Bumetanide] the figure was 87,85.
For `CC(C)C[C@H]1C(=O)N2CCC[C@H]2[C@]2(O)O[C@](NC(=O)[C@@H]3C=C4c5cccc6[nH]c(Br)c(c56)C[C@H]4N(C)C3)(C(C)C)C(=O)N12` [Bromocriptine], the AUC is listed as 164,57.
Regarding `C[C@H]1[C@H](OC(=O)CCC(=O)O)O[C@@H]2O[C@@]3(C)CC[C@H]4[C@H](C)CC[C@@H]1[C@@]24OO3` [Artesunate], the AUC under setting [1] was 222,25.
The same measure, in the same setting: with `Nc1nc(=O)c2ncn([C@@H]3C[C@H](CO)[C@H]3CO)c2[nH]1` [Lobucavir] the figure was 153,65.
The same measure, in the same setting: the value for `CC(=O)OCC(CCn1cnc2cnc(N)nc21)COC(C)=O` [Famciclovir] was 149,52; that for `COc1cc2ncnc(Nc3ccc(F)c(Cl)c3)c2cc1OCCCN1CCOCC1` [Gefitinib] was 188,86; that for `CCN(CC)CCCC(C)Nc1ccnc2cc(Cl)ccc12` (stereo not shown) [Chloroquine phosphate] was 165,9.
Still for that read-out and setting: the value for `Nc1ccn([C@@H]2O[C@H](CO)[C@@H](O)C2(F)F)c(=O)n1` [Gemcitabine] was 92,89.
In turn, `COC(=O)C1=C(C)NC(C)=C(C(=O)OCCN2CCN(C(c3ccccc3)c3ccccc3)CC2)C1c1cccc([N+](=O)[O-])c1` (stereo not shown) [Manidipine] showed an AUC under setting [1] of 133.
The same measure, in the same setting: the value for `O=c1[nH]c(=O)n([C@H]2C[C@H](O)[C@@H](CO)O2)cc1C(F)(F)F` [Trifluridine] was 107,17; that for `CNC(=C[N+](=O)[O-])NCCSCc1ccc(CN(C)C)o1` [Ranitidine] was 94,08; that for `CC(C)OC(=O)OCOP(=O)(CO[C@H](C)Cn1cnc2c(N)ncnc21)OCOC(=O)OC(C)C` [Tenofovir disoproxil fumarate] was 137,2.
`Cn1c(=O)c2c(ncn2CC(O)CO)n(C)c1=O` (stereo not shown) [7-(2,3-Dihydroxypropyl)theophylline]: the AUC is 195,44.
In the case of `COc1cccc(N2CCN(C3=Nc4c(F)cccc4[C@H](CC(=O)O)N3c3cc(C(F)(F)F)ccc3OC)CC2)c1` [Letermovir], under setting [1], the AUC is 134,12.
As for `CN[C@@H]1C[C@H]2O[C@@](C)([C@@H]1OC)n1c3ccccc3c3c4c(c5c6ccccc6n2c5c31)C(=O)NC4` [Staurosporine], the AUC is 15,75.
On the same count and under the same terms, with `CC1(C)[C@@H](O[C@H]2O[C@H](C(=O)O)[C@@H](O)[C@H](O)[C@H]2O[C@@H]2O[C@H](C(=O)O)[C@@H](O)[C@H](O)[C@H]2O)CC[C@]2(C)[C@H]3C(=O)C=C4[C@@H]5C[C@@](C)(C(=O)O)CC[C@]5(C)CC[C@@]4(C)[C@]3(C)CC[C@@H]12` [Glycyrrhizic acid (Glycyrrhizin), Glycyrrhizic acid] the figure was 235,76; with `CC[C@@]1(O)C(=O)OCc2c1cc1n(c2=O)Cc2cc3ccccc3nc2-1` [Camptothecin], 57,75.
Regarding `Nc1nc(O)c2ncn(COC(CO)CO)c2n1` [Ganciclovir], the AUC under setting [1] is 243,88.
On the same count and under the same terms, the value for `CCN(CCO)CCCC(C)Nc1ccnc2cc(Cl)ccc12` (stereo not shown) [Hydroxychloroquine] was 147,63.
`COc1ccc2cc3[n+](cc2c1OC)CCc1cc2c(cc1-3)OCO2` [Berberine]: the AUC is 236,67.
Turning to `CC(C)Nc1nc2cc(Cl)c(Cl)cc2n1[C@H]1O[C@@H](CO)[C@H](O)[C@@H]1O` [Maribavir], the AUC under setting [1] is 145,81.
Take `CO[C@H]1C[C@@H]2CC[C@@H](C)[C@@](O)(O2)C(=O)C(=O)N2CCCC[C@H]2C(=O)O[C@H]([C@H](C)C[C@@H]2CC[C@@H](O)[C@H](OC)C2)CC(=O)[C@H](C)/C=C(\C)[C@@H](O)[C@@H](OC)C(=O)[C@H](C)C[C@H](C)/C=C/C=C/C=C/1C` [Rapamycin]: the AUC was 46,9.
For the molecule `O=C(c1ccc(OCCN2CCCCC2)cc1)c1c(-c2ccc(O)cc2)sc2cc(O)ccc12` [Raloxifene], under setting [1], the AUC is listed as 199,57.
Turning to `COc1ccc(C[C@H]2NC[C@H](O)[C@H]2OC(C)=O)cc1` [Anisomycin], the AUC is recorded as 169,33.
With `C[C@]12Cc3c[nH]nc3C[C@@H]1CC[C@@H]1[C@@H]2CC[C@@]2(C)[C@H]1CC[C@]2(C)O` [Stanozolol], the AUC is given as 161,7.
For `CC(C)(C)c1cnc(CSc2cnc(NC(=O)C3CCNCC3)s2)o1` [SNS-032], the AUC under setting [1] is given as 96,25.
Take Doxycycline hyclate: the AUC is 143,99.
For the molecule `CC12CC3CC(C)(C1)CC(N)(C3)C2` [Memantine], the AUC under setting [1] was 115,78.
Still for that read-out and setting: the value for `CC(C)C[C@H](NC(=O)[C@H](Cc1ccccc1)NC(=O)c1cnccn1)B(O)O` [Bortezomib (PS-341), Bortezomib] was 68,67.
Still for that read-out and setting: with `CN(C)C(=O)COC(=O)Cc1ccc(OC(=O)c2ccc(NC(=N)N)cc2)cc1` [Camostat] the figure was 88,41; with `CCN(CC)CCCC(C)Nc1c2ccc(Cl)cc2nc2ccc(OC)cc12` (stereo not shown) [Quinacrine dihydrochloride], 105,63.
`CC(=O)Oc1ccccc1C(=O)O` [Acetylsalicylic acid]: the AUC under setting [1] is reported as 131,04.
As for `CN(C)CCCN1c2ccccc2Sc2ccc(Cl)cc21` [Chlorpromazine hydrochloride], the AUC under setting [1] was 86,52.
The same measure, in the same setting: the value for `CC/C(=C(\c1ccccc1)c1ccc(OCCN(C)C)cc1)c1ccccc1` [Tamoxifen] was 54,67.
For Pentosan polysulfate, the AUC was 123,06.
Same read-out and setting: the value for `C[C@H]1O[C@@H](O[C@H]2CC[C@@]3(C)[C@@H](CC[C@]4(C)[C@@H]3C=C[C@]35OC[C@@]6(CCC(C)(C)C[C@H]63)[C@@H](O)C[C@]54C)[C@]2(C)CO)[C@H](O)[C@@H](O[C@@H]2O[C@H](CO)[C@@H](O)[C@H](O)[C@H]2O)[C@H]1O` [Saikosaponin A] was 77; that for `CN[C@H]1C(=O)N[C@@H]2Cc3ccc(cc3)Oc3cc4cc(c3O[C@@H]3O[C@H](C(=O)O)[C@@H](O)[C@H](O)[C@H]3NC(=O)CCCCCCCCC(C)C)Oc3ccc(cc3Cl)[C@@H](O)[C@@H]3NC(=O)[C@H](NC(=O)[C@@H]4NC(=O)[C@@H](NC2=O)c2cc(cc(O)c2Cl)Oc2cc1ccc2O)c1ccc(O)c(c1)-c1c(O[C@H]2O[C@H](CO)[C@@H](O)[C@H](O)[C@@H]2O)cc(O)cc1[C@@H](C(=O)NCCCN(C)C)NC3=O` [Dalbavancin] was 136,29.
On the same count and under the same terms, the value for `CS(=O)(=O)O.Cc1ccc2c(c1)c1c3n2CCNC3CCC1` (stereo not shown) [Pirlindole mesylate] was 120,4.
On to `CC(C)C(=O)OCC(=O)[C@@]12O[C@H](C3CCCCC3)O[C@@H]1C[C@H]1[C@@H]3CCC4=CC(=O)C=C[C@]4(C)[C@H]3[C@@H](O)C[C@@]12C` [Ciclesonide], for which the AUC under setting [1] is on record as 157,15.
Still for that read-out and setting: with `C#Cc1cccc(Nc2ncnc3cc(OCCOC)c(OCCOC)cc23)c1` [Erlotinib] the figure was 103,46.
The same measure, in the same setting: with `Nc1ccn(C[C@@H](CO)OCP(=O)(O)O)c(=O)n1` [Cidofovir] the figure was 144,69.
With Clomiprade hydrochloride, the AUC is listed as 74,69.
Take `NC(=O)c1nc(F)c[nH]c1=O` [Favipiravir (T-705), Favipiravir]: the AUC under setting [1] was 136,64.
On the same count and under the same terms, with `CC[C@H](C)C(=O)O[C@H]1C[C@@H](C)C=C2C=C[C@H](C)[C@H](CC[C@@H]3C[C@@H](O)CC(=O)O3)[C@H]21` [Lovastatin] the figure was 204,26; with `CN(C)C(=N)N=C(N)N` [Metformin (1,1-Dimethylbiguanide), 1,1-Dimethylbiguanide], 116,76.
Same read-out and setting: with `C/C(O)=C(\C#N)C(=O)Nc1ccc(C(F)(F)F)cc1` [Teriflunomide] the figure was 72,87; with `Cc1cccc(C)c1OCC(=O)N[C@@H](Cc1ccccc1)[C@@H](O)C[C@H](Cc1ccccc1)NC(=O)[C@H](C(C)C)N1CCCNC1=O` [Lopinavir], 157,36.
As for `CC(C)OC(=O)[C@H](C)N[P@](=O)(OC[C@H]1O[C@@H](n2ccc(=O)[nH]c2=O)[C@](C)(F)[C@@H]1O)Oc1ccccc1` [PSI-7977 (Sofosbuvir), Sofosbuvir], the AUC is listed as 131,11.
Regarding `Cn1c(=O)c2c(ncn2C)n(C)c1=O` [Caffeine], the AUC under setting [1] is 147,28.
Take `Cc1cc(O)c2c(c1)C(=O)c1cc(O)cc(O)c1C2=O` [Emodin]: the AUC is reported as 170,24.
For the molecule `CN1[C@@H]2CC[C@H]1C[C@@H](OC(c1ccccc1)c1ccccc1)C2` [Benzatropine], the AUC under setting [1] is recorded as 208,11.
As to `Oc1c(Cl)cc(Cl)c(Cl)c1Cc1c(O)c(Cl)cc(Cl)c1Cl` [Hexachlorophene], the AUC is 122,15.
Turning to Abamectin, the AUC was 151,97.
Regarding `COc1c(C)c2c(c(O)c1C/C=C(\C)CCC(=O)O)C(=O)OC2` [Mycophenolic acid], under setting [1], the AUC is 103,74.
On the same count and under the same terms, the value for `CC(=O)Oc1ccccc1C(=O)Nc1ncc([N+](=O)[O-])s1` [Nitazoxanide] was 120,33.
